Experimental data taken from US9486506B2 (Novo Nordisk A/S, priority 2011, dated 2016).
Numbered stars: 1 amine (or outer) side, 2 acyl side, 3 side chain; on linkers, the order of the positions; unused ones are H or OH. Side chains are listed from the residue outwards. Peptide text beside a SMILES is read from it. * marks the point of attachment. C18 diacid = O=C(O)CCCCCCCCCCCCCCCCC(=O)*; γGlu = O=C(O)[C@H](CCC(=O)[*:2])N[*:1]; AEEA = NCCOCCOCC(=O)O

Legend:
glucagon receptor = molecular target: T1, glucagon receptor (Homo sapiens, UniProt P47871); assay: Assay (I) Glucagon activity (cAMP biosensor, FLIPR); type: cell-based
T1 construct: expressed in transfected cells
T1 sequence (P47871 26-477): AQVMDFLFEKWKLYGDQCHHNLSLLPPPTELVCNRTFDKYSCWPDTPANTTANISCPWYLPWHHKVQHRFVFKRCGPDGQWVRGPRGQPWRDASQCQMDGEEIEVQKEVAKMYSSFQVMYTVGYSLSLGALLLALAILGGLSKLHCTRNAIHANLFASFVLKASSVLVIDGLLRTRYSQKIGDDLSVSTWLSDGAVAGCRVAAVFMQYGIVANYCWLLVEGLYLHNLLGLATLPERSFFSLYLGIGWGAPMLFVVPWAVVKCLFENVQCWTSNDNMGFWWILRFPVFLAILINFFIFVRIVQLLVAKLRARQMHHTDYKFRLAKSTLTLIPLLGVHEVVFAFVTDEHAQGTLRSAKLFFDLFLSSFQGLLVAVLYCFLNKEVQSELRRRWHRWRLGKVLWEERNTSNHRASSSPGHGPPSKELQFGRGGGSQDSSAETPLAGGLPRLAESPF

[1] = Assay (X) Chemical stability assessment by RP-UPLC; type: physicochemical; details: pH 8.15, 14 days at 37° C. vs 5° C., 333 μM

SMILES | EC50 (glucagon receptor) | Chemical stability [Purity loss/14 days 37 C.] [1]
CC(C)C[C@H](NC(=O)[C@H](Cc1c[nH]c2ccccc12)NC(=O)[C@H](CCCCNC(=O)CC[C@H](NC(=O)CC[C@H](NC(=O)COCCOCCNC(=O)COCCOCCNC(=O)CC[C@H](NC(=O)CCCCCCCCCCCCCCCCC(=O)O)C(=O)O)C(=O)O)C(=O)O)NC(=O)[C@@H](NC(=O)[C@H](Cc1ccccc1)NC(=O)[C@H](CC(=O)O)NC(=O)[C@H](CCC(N)=O)NC(=O)[C@H](C)NC(=O)[C@H](CCCNC(=N)N)NC(=O)[C@H](CCCNC(=N)N)NC(=O)[C@@H](NC(=O)[C@H](CCC(=O)O)NC(=O)[C@H](CC(C)C)NC(=O)[C@H](Cc1ccc(O)cc1)NC(=O)[C@H](CCCCN)NC(=O)[C@H](CO)NC(=O)[C@H](Cc1ccc(O)cc1)NC(=O)[C@H](CC(=O)O)NC(=O)[C@H](CO)NC(=O)[C@@H](NC(=O)[C@H](Cc1ccccc1)NC(=O)[C@@H](NC(=O)CNC(=O)[C@H](Cc1c[nH]cn1)NC(=O)[C@H](CO)NC(=O)[C@@H](N)Cc1c[nH]cn1)[C@@H](C)O)[C@@H](C)O)[C@@H](C)O)C(C)C)C(=O)N[C@@H](CC(C)C)C(=O)N[C@@H](CC(N)=O)C(=O)N[C@H](C(=O)O)[C@@H](C)O [Example 9, N^ε24-[(4S)-4-carboxy-4-[[(4S)-4-carboxy-4-[[2-[2-[2-[[2-[2-[2-[[(4S)-4-carboxy-4-(17-carboxyheptadecanoylamino)butanoyl]amino]ethoxy]ethoxy]acetyl]amino]ethoxy]ethoxy]acetyl]amino]butanoyl]amino]butanoyl]-[His^3,Glu^15,Thr^16,Lys^24,Leu^27]-Glucagon] (H-HSHGTFTSDYSKYLETRRAQDFVK([γGlu-γGlu-AEEA-AEEA-γGlu-C18 diacid])WLLNT-OH) | 0.036 nM | 10%
CC(C)C[C@H](NC(=O)[C@H](CC(C)C)NC(=O)[C@H](Cc1c[nH]c2ccccc12)NC(=O)[C@H](CCCCNC(=O)CC[C@H](NC(=O)CC[C@H](NC(=O)COCCOCCNC(=O)COCCOCCNC(=O)CC[C@H](NC(=O)CCCCCCCCCCCCCCCCC(=O)O)C(=O)O)C(=O)O)C(=O)O)NC(=O)[C@@H](NC(=O)[C@H](Cc1ccccc1)NC(=O)[C@H](CC(=O)O)NC(=O)[C@H](CCC(N)=O)NC(=O)[C@H](C)NC(=O)[C@H](CCCNC(=N)N)NC(=O)[C@H](CCCNC(=N)N)NC(=O)[C@H](CC(C)C)NC(=O)[C@H](CC(=O)O)NC(=O)[C@H](CC(C)C)NC(=O)[C@H](Cc1ccc(O)cc1)NC(=O)[C@H](CCCNC(=N)N)NC(=O)[C@H](CO)NC(=O)[C@H](Cc1ccc(O)cc1)NC(=O)[C@H](CC(=O)O)NC(=O)[C@H](CO)NC(=O)[C@@H](NC(=O)[C@H](Cc1ccccc1)NC(=O)[C@@H](NC(=O)CNC(=O)[C@H](CCC(N)=O)NC(=O)[C@H](CO)NC(=O)[C@@H](N)Cc1c[nH]cn1)[C@@H](C)O)[C@@H](C)O)C(C)C)C(=O)NCC(=O)N[C@H](C(=O)O)[C@@H](C)O [Example 88, N^ε24-[(4S)-4-carboxy-4-[[(4S)-4-carboxy-4-[[2-[2-[2-[[2-[2-[2-[[(4S)-4-carboxy-4-(17-carboxyheptadecanoylamino)butanoyl]amino]ethoxy]ethoxy]acetyl]amino]ethoxy]ethoxy]acetyl]amino]butanoyl]amino]butanoyl]-[Arg12,Leu16,Lys24,Leu27,Gly28]-Glucagon] (H-HSQGTFTSDYSRYLDLRRAQDFVK([γGlu-γGlu-AEEA-AEEA-γGlu-C18 diacid])WLLGT-OH) | 0.47 nM | 4.7%
CC(C)C[C@H](NC(=O)[C@H](Cc1c[nH]c2ccccc12)NC(=O)[C@H](CCCCNC(=O)COCCOCCNC(=O)COCCOCCNC(=O)CC[C@H](NC(=O)CC[C@H](NC(=O)CC[C@H](NC(=O)CCCCCCCCCCCCCCCCC(=O)O)C(=O)O)C(=O)O)C(=O)O)NC(=O)[C@@H](NC(=O)[C@H](Cc1ccccc1)NC(=O)[C@H](CCC(=O)O)NC(=O)[C@H](CCC(N)=O)NC(=O)[C@H](C)NC(=O)[C@H](CCCNC(=N)N)NC(=O)[C@H](CCCNC(=N)N)NC(=O)[C@@H](NC(=O)[C@H](CC(=O)O)NC(=O)[C@H](CC(C)C)NC(=O)[C@H](Cc1ccc(O)cc1)NC(=O)[C@H](CCCCN)NC(=O)[C@H](CO)NC(=O)[C@@H](NC(=O)[C@H](CC(=O)O)NC(=O)[C@H](CO)NC(=O)[C@@H](NC(=O)[C@H](Cc1ccccc1)NC(=O)[C@@H](NC(=O)CNC(=O)[C@H](CCC(N)=O)NC(=O)[C@H](CO)NC(=O)[C@@H](N)Cc1c[nH]cn1)[C@@H](C)O)[C@@H](C)O)C(C)C)[C@@H](C)O)C(C)C)C(=O)N[C@@H](CC(C)C)C(=O)N[C@@H](CO)C(=O)N[C@H](C(=O)O)[C@@H](C)O [Example 62, N^ε24-[2-[2-[2-[[2-[2-[2-[[(4S)-4-carboxy-4-[[(4S)-4-carboxy-4-[[(4S)-4-carboxy-4-(17-carboxyheptadecanoylamino)butanoyl]amino]butanoyl]amino]butanoyl]amino]ethoxy]ethoxy]acetyl]amino]ethoxy]ethoxy]acetyl]-[Val10,Thr16,Glu21,Lys24,Leu27,Ser28]-Glucagon] (H-HSQGTFTSDVSKYLDTRRAQEFVK([AEEA-AEEA-γGlu-γGlu-γGlu-C18 diacid])WLLST-OH) | 0.08 nM | 5.6%
CC(C)C[C@H](NC(=O)[C@H](Cc1ccc(O)cc1)NC(=O)[C@H](CCCNC(=N)N)NC(=O)[C@H](CO)NC(=O)[C@H](Cc1ccc(O)cc1)NC(=O)[C@H](CC(=O)O)NC(=O)[C@H](CO)NC(=O)[C@@H](NC(=O)[C@H](Cc1ccccc1)NC(=O)[C@@H](NC(=O)CNC(=O)[C@H](CCC(N)=O)NC(=O)[C@H](CO)NC(=O)[C@@H](N)Cc1c[nH]cn1)[C@@H](C)O)[C@@H](C)O)C(=O)N[C@@H](CC(=O)O)C(=O)N[C@@H](Cc1ccccc1)C(=O)N[C@@H](CCCNC(=N)N)C(=O)N[C@@H](CCCNC(=N)N)C(=O)N[C@@H](C)C(=O)N[C@@H](CCC(N)=O)C(=O)N[C@@H](CC(=O)O)C(=O)N[C@@H](Cc1ccccc1)C(=O)N[C@H](C(=O)N[C@@H](CCCCNC(=O)CC[C@H](NC(=O)CC[C@H](NC(=O)COCCOCCNC(=O)COCCOCCNC(=O)CC[C@H](NC(=O)CCCCCCCCCCCCCCCCC(=O)O)C(=O)O)C(=O)O)C(=O)O)C(=O)N[C@@H](Cc1c[nH]c2ccccc12)C(=O)N[C@@H](CC(C)C)C(=O)N[C@@H](CC(C)C)C(=O)N[C@@H](CO)C(=O)N[C@H](C(=O)O)[C@@H](C)O)C(C)C [Example 17, N^ε24-[(4S)-4-carboxy-4-[[(4S)-4-carboxy-4-[[2-[2-[2-[[2-[2-[2-[[(4S)-4-carboxy-4-(17-carboxyheptadecanoylamino)butanoyl]amino]ethoxy]ethoxy]acetyl]amino]ethoxy]ethoxy]acetyl]amino]butanoyl]amino]butanoyl]-[Arg^12,Phe^16,Lys^24,Leu^27,Ser^28]-Glucagon] (H-HSQGTFTSDYSRYLDFRRAQDFVK([γGlu-γGlu-AEEA-AEEA-γGlu-C18 diacid])WLLST-OH) | 1.64 nM | 3.1%
CC(C)C[C@H](NC(=O)[C@H](Cc1ccc(O)cc1)NC(=O)[C@H](CCCNC(=N)N)NC(=O)[C@H](CO)NC(=O)[C@H](Cc1ccc(O)cc1)NC(=O)[C@H](CC(=O)O)NC(=O)[C@H](CO)NC(=O)[C@@H](NC(=O)[C@H](Cc1ccccc1)NC(=O)[C@@H](NC(=O)CNC(=O)[C@H](CCC(N)=O)NC(=O)[C@H](CO)NC(=O)[C@@H](N)Cc1c[nH]cn1)[C@@H](C)O)[C@@H](C)O)C(=O)N[C@@H](CC(=O)O)C(=O)N[C@@H](CCC(=O)O)C(=O)N[C@@H](CCCNC(=N)N)C(=O)N[C@@H](CCCNC(=N)N)C(=O)N[C@@H](C)C(=O)N[C@@H](CCC(N)=O)C(=O)N[C@@H](CC(=O)O)C(=O)N[C@@H](Cc1ccccc1)C(=O)N[C@H](C(=O)N[C@@H](CCCCNC(=O)CC[C@H](NC(=O)CC[C@H](NC(=O)COCCOCCNC(=O)COCCOCCNC(=O)CC[C@H](NC(=O)CCCCCCCCCCCCCCCCC(=O)O)C(=O)O)C(=O)O)C(=O)O)C(=O)N[C@@H](Cc1c[nH]c2ccccc12)C(=O)N[C@@H](CC(C)C)C(=O)N[C@@H](CC(C)C)C(=O)N[C@@H](CO)C(=O)N[C@H](C(=O)O)[C@@H](C)O)C(C)C [Example 42, N^ε24-[(4S)-4-carboxy-4-[[(4S)-4-carboxy-4-[[2-[2-[2-[[2-[2-[2-[[(4S)-4-carboxy-4-(17-carboxyheptadecanoylamino)butanoyl]amino]ethoxy]ethoxy]acetyl]amino]ethoxy]ethoxy]acetyl]amino]butanoyl]amino]butanoyl]-[Arg12,Glu16,Lys24,Leu27,Ser28]-Glucagon] (H-HSQGTFTSDYSRYLDERRAQDFVK([γGlu-γGlu-AEEA-AEEA-γGlu-C18 diacid])WLLST-OH) | 0.153 nM | 7.2%
CC(C)C[C@H](NC(=O)[C@H](Cc1c[nH]c2ccccc12)NC(=O)[C@H](CCCCNC(=O)CC[C@H](NC(=O)COCCOCCNC(=O)COCCOCCNC(=O)CC[C@H](NC(=O)CC[C@H](NC(=O)CCCCCCCCCCCCCCCCC(=O)O)C(=O)O)C(=O)O)C(=O)O)NC(=O)[C@@H](NC(=O)[C@H](Cc1ccccc1)NC(=O)[C@H](CCC(=O)O)NC(=O)[C@H](CCC(N)=O)NC(=O)[C@H](C)NC(=O)[C@H](CCCNC(=N)N)NC(=O)[C@H](CCCNC(=N)N)NC(=O)[C@@H](NC(=O)[C@H](CC(=O)O)NC(=O)[C@H](CC(C)C)NC(=O)[C@H](Cc1ccc(O)cc1)NC(=O)[C@H](CCCNC(=N)N)NC(=O)[C@H](CO)NC(=O)[C@@H](NC(=O)[C@H](CC(=O)O)NC(=O)[C@H](CO)NC(=O)[C@@H](NC(=O)[C@H](Cc1ccccc1)NC(=O)[C@@H](NC(=O)CNC(=O)[C@H](CCC(N)=O)NC(=O)[C@H](CO)NC(=O)[C@@H](N)Cc1c[nH]cn1)[C@@H](C)O)[C@@H](C)O)C(C)C)[C@@H](C)O)C(C)C)C(=O)N[C@@H](CC(C)C)C(=O)N[C@@H](CO)C(=O)N[C@H](C(=O)O)[C@@H](C)O [Example 64, N^ε24-[(4S)-4-carboxy-4-[[2-[2-[2-[[2-[2-[2-[[(4S)-4-carboxy-4-[[(4S)-4-carboxy-4-(17-carboxyheptadecanoylamino)butanoyl]amino]butanoyl]amino]ethoxy]ethoxy]acetyl]amino]ethoxy]ethoxy]acetyl]amino]butanoyl]-[Val10,Arg12,Thr16,Glu21,Lys24,Leu27,Ser28]-Glucagon] (H-HSQGTFTSDVSRYLDTRRAQEFVK([γGlu-AEEA-AEEA-γGlu-γGlu-C18 diacid])WLLST-OH) | 0.176 nM | 5.1%
